Laboratory results: publication PMC5733700 (Bioorganic & medicinal chemistry, 2017)

Tests used:
[1] = system: HEK293 cells; test: Non-specific cytotoxicity, HEK293 control cell line; assay type: cell-based; details: control embryonic kidney cell line; 3 days exposure
[2] = target: BRD2-BD1 (74–194) (Homo sapiens, UniProt P25440); test: Isothermal titration calorimetry; assay type: binding; details: 15 °C, no DMSO in buffer
[3] = system: HEPG2 cells; test: Non-specific cytotoxicity, HEPG2 control cell line; assay type: cell-based; details: control hepatocarcinoma cell line; 3 days exposure
[4] = system: BJ cells; test: Non-specific cytotoxicity, BJ control cell line; assay type: cell-based; details: control immortalized fibroblast cell line; 3 days exposure
[5] = target: BRD2-BD2 (348–455) (Homo sapiens, UniProt P25440); test: Isothermal titration calorimetry; assay type: binding; details: 15 °C, no DMSO in buffer
Sequence of BRD2-BD2 (348–455) (P25440 348-455): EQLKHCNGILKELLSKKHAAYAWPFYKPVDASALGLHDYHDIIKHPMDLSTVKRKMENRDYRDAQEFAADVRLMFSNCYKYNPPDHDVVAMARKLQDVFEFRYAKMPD

Sequence of BRD2-BD1 (74–194) (P25440 74-194): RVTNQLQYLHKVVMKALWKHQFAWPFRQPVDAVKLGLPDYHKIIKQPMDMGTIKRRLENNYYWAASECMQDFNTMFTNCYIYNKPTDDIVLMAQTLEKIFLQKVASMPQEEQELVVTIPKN

Compound | Cytotoxicity EC50, HEK293 [1] | ITC ΔG, BRD2 BD1 [2] | ITC ΔH, BRD2 BD1 [2] | ITC −TΔS, BRD2 BD1 [2] | Cytotoxicity EC50, HEPG2 [3] | Cytotoxicity EC50, BJ [4] | ITC ΔG, BRD2 BD2 [5] | ITC ΔH, BRD2 BD2 [5] | ITC −TΔS, BRD2 BD2 [5]
CC(=O)N1c2ccc(-c3ccco3)cc2[C@H](NC(=O)OC(C)C)C[C@@H]1C [Compound 9, Isopropyl ((2S,4R)-1-acetyl-6-(furan-2-yl)-2-methyl-1,2,3,4-tetrahydroquinolin-4-yl)carbamate] | did not exhibit cytotoxicity at the highest concentrations tested | -7.47 kcal/mol | -7.27 kcal/mol | -0.2 kcal/mol | did not exhibit cytotoxicity at the highest concentrations tested | did not exhibit cytotoxicity at the highest concentrations tested |  |  | 
CC(=O)N1c2ccc(-c3ccoc3)cc2[C@H](NC(=O)OC(C)C)C[C@@H]1C [Compound 12, Isopropyl ((2S,4R)-1-acetyl-6-(furan-3-yl)-2-methyl-1,2,3,4-tetrahydroquinolin-4-yl)carbamate] |  | -8.96 kcal/mol | -9.9 kcal/mol | 0.94 kcal/mol |  |  | -8.61 kcal/mol | -6.31 kcal/mol | -2.29 kcal/mol
CC(=O)N1c2ccc(-c3ccsc3)cc2[C@H](NC(=O)OC(C)C)C[C@@H]1C [Compound 13, Isopropyl ((2S,4R)-1-acetyl-2-methyl-6-(thiophen-3-yl)-1,2,3,4-tetrahydroquinolin-4-yl)carbamate] |  | -9.43 kcal/mol | -7.69 kcal/mol | -1.74 kcal/mol |  |  | -10.25 kcal/mol | -6.92 kcal/mol | -3.33 kcal/mol
CC(=O)N1c2ccc(-c3cc[nH]c3)cc2[C@H](NC(=O)OC(C)C)C[C@@H]1C [Compound 14, Isopropyl ((2S,4R)-1-acetyl-2-methyl-6-(1H-pyrrol-3-yl)-1,2,3,4-tetrahydroquinolin-4-yl)carbamate] |  | -9.28 kcal/mol | -7.33 kcal/mol | -1.95 kcal/mol |  |  | -10.15 kcal/mol | -7.01 kcal/mol | -3.32 kcal/mol
CC(=O)N1c2ccc(-c3ccc[nH]3)cc2[C@H](NC(=O)OC(C)C)C[C@@H]1C [Compound 11, Isopropyl ((2S,4R)-1-acetyl-2-methyl-6-(1H-pyrrol-2-yl)-1,2,3,4-tetrahydroquinolin-4-yl)carbamate] |  | -9.08 kcal/mol | -6.9 kcal/mol | -2.18 kcal/mol |  |  | -9.82 kcal/mol | -6.89 kcal/mol | -2.92 kcal/mol
Cc1sc2c(c1C)C(c1ccc(Cl)cc1)=N[C@@H](CC(=O)OC(C)(C)C)c1nnc(C)n1-2 [Compound 1, (+)-JQ1, reference compound] |  |  | -4.9 kcal/mol | -4.39 kcal/mol |  |  |  | -1.47 kcal/mol | -7.83 kcal/mol
CC(=O)N1c2ccc(-c3cccs3)cc2[C@H](NC(=O)OC(C)C)C[C@@H]1C [Compound 10, Isopropyl ((2S,4R)-1-acetyl-2-methyl-6-(thiophen-2-yl)-1,2,3,4-tetrahydroquinolin-4-yl)carbamate] |  | -9.52 kcal/mol | -8.27 kcal/mol | -1.25 kcal/mol |  |  | -10.12 kcal/mol | -7.18 kcal/mol | -2.94 kcal/mol
